# From patent US9758559B2, “Short peptides derived from VDAC1, compositions and methods of use thereof” (B.G. NEGEV TECHNOLOGIES AND APPLICATIONS LTD., AT …, priority 2013, dated 2017)
# Where no end group is shown, it is not given here.
# What was measured:
# [1] = tested on: MEC-1 cells; format: cell-based; details: for cell-death induction activity, in words: compared with N-Ter-Antp
# Experimental: (§1) MEC-1, MO1043 and T-Rex-293 cells were grown in DMEM supplemented with 10% FCS, 2 mM L-glutamine, 1000 U/ml penicillin and 1 mg/ml streptomycin, U-87, C6 and PC3 were maintained in RPMI 1640 supplemented with 10-20% FCS, 2 mM L-glutamine, 1000 U/ml penicillin and 1 mg/ml streptomycin. All cells were maintained in a humidified atmosphere with 5% CO2 at 37° C.
# (§2) PBMCs (4×10^5 or 8×10^5 cells/sample) were incubated in 200 μl serum-free medium with the examined peptide for 90 min at room temperature and centrifuged (500×g, 5 min) Cell death was analyzed by PI staining and flow cytometer (Beckton-Dickinson) and BD Cell Quest Pro software. Apoptotic cell death was also analyzed by PI and annexin V-FITC staining (Zaid H et al. 2005. 12:751-760), and by acridine orange and ethidium bromide staining and confocal microscopy (Olympus 1×81).
# (§3) To optimize the VDAC1 N-terminal derived peptides with respect to stability, length and specific targeting to cancer cells, several versions of these peptides were designed and tested for their efficacy in inducing the death of CLL-derived lymphocytes and MEC-1 cells (Table 3). Cells were incubated for 90 min with increasing concentrations of the indicated peptide and death was analyzed by PI stating and FACS as described hereinabove. As is clearly shown in FIG. 1 (and Table 3), deleting 6 residues from the C-terminus of the peptide, including the GXXXG motif, yielded a non-active peptide (peptide Δ(21-26) N-Ter-Antp, SEQ ID NO:22).
# [2] = tested on: CLL-derived lymphocytes; assay: Cell death of CLL-derived lymphocytes (PBMCs of CLL patients), PI staining and FACS; format: cell-based, human; details: 90 min incubation, PI staining, FACS, read-out: IC50, induction of cell death, CLL
# Experimental: PBMCs were isolated from venous blood of the CLL patients by Ficoll-Paque PLUS (GE Healthcare, Israel) density gradient centrifugation, as follows. Venous blood (10-20 ml) was drawn from CLL patients with satisfying diagnostic criteria for CLL or from normal adult donors. Blood was collected into heparin tubes and was diluted 1:1 with balance solution composed of two stock solutions, A (1% D-glucose, 50 mM CaCl2, 0.98 mM MgCl2, 5.4 mM KCl and 0.145 M Tris-HCl, pH 7.6) and B (0.14 M NaCl) in a 1:9 ratio. The resulting mix was carefully layered on Ficoll-Paque Plus (10 ml of diluted blood:15 ml Ficoll) in 50 ml conical tubes. The tubes were centrifuged at 400×g (with minimal acceleration and deceleration) and 18-20° C. for 40 min. […] Cells were counted by a Countess Automated Cell Counter (Invitrogen).
# as §2, with “1×81). […]” for “1×81).”
# [3] = tested on: MO1043 cells; assay: Cell death of MO1043 cells, PI staining and FACS; format: cell-based, human; details: compared with N-Ter-Antp
# Experimental: as §1, §2
# as §3, with “As is clearly shown in FIG. 1 (and Table 3), deleting 6 residues from the C-terminus of the peptide, including the GXXXG motif, yielded a non-active peptide (peptide Δ(21-26) N-Ter-Antp, SEQ ID NO:22).” left out
Sequence,"cell-death induction activity, in words [1]",other results
"GKSARDVFTKGYGFGLRQIKIWFQNRRMKWKK [Δ(1-10) N-Ter-Antp, GKSARDVFTKGYGFGL RQIKIWFQNRRMKWKK]",did not significantly modified the cell-death induction activity,
"MAVPPTYADLGKSARDVFTKGYGFGLRQIKIWFQNRRMKWKK [N-Ter-Antp, reference compound]",,"IC50 [2]: 3.2 ± 0.5 µM; IC50 ([1]; 90 min incubation, serum-free medium, PI staining, FACS, read-out: IC50, induction of cell death, MEC-1): 4.2 ± 0.2 µM"
MAVPPTYADLGKSARDVFTKRQIKIWFQNRRMKWKK [Δ(21-26) N-Ter-Antp],non-active,
PTYADLGKSARDVFTKGYGFGLRQIKIWFQNRRMKWKK [Δ(1-4) N-Ter-Antp],did not significantly modified the cell-death induction activity,
"RDVFTKGYGFGLRQIKIWFQNRRMKWKK [Δ(1-14) N-Ter-Antp, RDVFTKGYGFGL RQIKIWFQNRRMKWKK]",more active,
TKGYGFGL RQIKIWFQNRRMKWKK (TKGYGFGLRQIKIWFQNRRMKWKK) [Δ(1-18) N-Ter-Antp],,"cell-death induction activity, in words [3]: more active"
